Measured values published in US20140309188A1, “USE OF PHARMACEUTICAL COMPOSITION COMPRISING DEOXYNUCLEOSIDE AND NUCLEOSIDE FOR TREATMENT OF TUMOR” (priority 2011, published 2014).
Values joined by “and” are separate entries in the source; they are usually repeats but may differ in a detail not shown here. Equal entries are not always repeated.

Legend:
Assay type in all cases: cell-based
[1] = tested on: Human glioma cell line SHG-44; assay: MTT growth inhibition on human glioma cell line SHG-44; settings: concentrations same as Example 1
Procedure: Human hepatoma cells BEL-7402 and human lung cancer cells PG provided by Institute of Biochemistry and Cell Biology, SIBS, CAS were cultured in the culture medium RPMI 1640 comprising 10% fetal bovine serum. The cells in the exponential growth phase were collected, digested with 0.25% trypsin, inoculated to a 96-well plate with each well having 3×10^3 cells, and then cultured in an incubator having 5% CO2 at 37° C. for 24 hours. Each experimental group was provided with 8 wells. 60 μL of a nucleoside solution having a total concentration of 10.0 mmol/L was added to each well, and the culture medium was replenished to ensure each well to have a volume of 200 μL. The control group was administered with 5-FU having the same concentration as the nucleoside solution. The obtained cells were diluted with serum-free medium and filtered with sterile microporous membrane having an aperture size of 0.22 μm. 48 hours later, cell morphology was observed and photographed by an inverted microscope. Thereafter, 20 μL of MTT solution having a concentration of 5 mg/mL was added to each well of the 96-well plate, which was further cultured in the incubator having 5% CO2 at 37° C. for 4 hours. […] An automatic microplate reader (Thermo, Multiskan MK3) was employed to measure the absorbancy at 570 nm. […]
Survival rate of tumor cells (%)=measured OD value of experimental wells/OD value of wells of control group […]

[2] = tested on: Human cervical carcinoma Hela; assay: MTT growth inhibition on human cervical carcinoma Hela; settings: concentrations same as Example 1
[3] = tested on: Human colon cancer cell line HT-29; assay: MTT growth inhibition on human colon cancer cell line HT-29; settings: 48 hours; concentrations same as Example 1 (total 10.0 mmol/L solution, 60 μL per 200 μL well)
Procedure: (§1) Human hepatoma cells BEL-7402 and human lung cancer cells PG provided by Institute of Biochemistry and Cell Biology, SIBS, CAS were cultured in the culture medium RPMI 1640 comprising 10% fetal bovine serum. The cells in the exponential growth phase were collected, digested with 0.25% trypsin, inoculated to a 96-well plate with each well having 3×10^3 cells, and then cultured in an incubator having 5% CO2 at 37° C. for 24 hours. Each experimental group was provided with 8 wells. 60 μL of a nucleoside solution having a total concentration of 10.0 mmol/L was added to each well, and the culture medium was replenished to ensure each well to have a volume of 200 μL. The control group was administered with 5-FU having the same concentration as the nucleoside solution. The obtained cells were diluted with serum-free medium and filtered with sterile microporous membrane having an aperture size of 0.22 μm. 48 hours later, cell morphology was observed and photographed by an inverted microscope. Thereafter, 20 μL of MTT solution having a concentration of 5 mg/mL was added to each well of the 96-well plate, which was further cultured in the incubator having 5% CO2 at 37° C. for 4 hours. After the culture, the supernate in the wells was removed. 150 μL of DMSO was added to each well. The 96-well plate was shaken for 10 minutes to facilitate the dissolution of the crystals. An automatic microplate reader (Thermo, Multiskan MK3) was employed to measure the absorbancy at 570 nm. Each experimental group was provided with 8 wells, and each experiment was repeated for three times. Table 1 lists the average value of the three experiments.
(§2) Survival rate of tumor cells (%)=measured OD value of experimental wells/OD value of wells of control group
(§3) Growth inhibition rate of tumor cells=100%−Survival rate of tumor cells (%)
(§4) The experimental groups and the control group were administered with different nucleosides or a combination thereof, as listed in Table 2. Human colon cancer cell line HT-29 was provided by the Institute of Basic Medical Sciences (IBMS) of the Chinese Academy of Medical Sciences (CAMS). The experimental method was the same as that in Example 1. The concentrations of the nucleoside combination, the single deoxynucleoside, and 5-FU are all the same as that in Example 1.

[4] = tested on: Human gastric cancer cell lines BGC823; assay: MTT growth inhibition on human gastric cancer cell lines BGC823; settings: concentrations same as Example 1
Procedure: as §1, with “48 hours later, cell morphology was observed and photographed by an inverted microscope.” left out
as §2, §3
as §4, with “4.” for “2.”, “gastric” for “colon”, “lines BGC823” for “line HT-29”

[5] = tested on: Human hepatoma cells BEL-7402; assay: MTT growth inhibition on human hepatoma cells BEL-7402; settings: for Growth inhibition rate (%) on Bel-7402: Example 3, concentrations same as Example 1; for inhibition at 10000 µM (stock): Homo sapiens, Bel-7402, read-out: Growth inhibition rate (%) on tumor cells Bel-7402
Procedure: as §1, with “48 hours later, cell morphology was observed and photographed by an inverted microscope.” left out
as §2, §3
1. Experimental method: The experimental groups and the control group were administered with different nucleosides or a combination thereof, as listed in Table 3. Human hepatoma cells Bel-7402 was provided by Institute of Biochemistry and Cell Biology, SIBS, CAS. The experimental method was the same as that in Example 1. The concentrations of the nucleoside combination, the single nucleoside, and 5-FU are all the same as that in Example 1.

[6] = tested on: Human breast cancer cell lines Bcap-37; assay: MTT growth inhibition on human breast cancer cell lines Bcap-37; settings: concentrations same as Example 1
Procedure: as §1, §2, §3
as §4, with “5.” for “2.”, “breast” for “colon”, “lines Bcap-37” for “line HT-29”, “nucleoside,” for “deoxynucleoside,”

[7] = tested on: human lung cancer cells PG; assay: MTT growth inhibition on human lung cancer cells PG; settings: 48 hours, 60 μL of 10.0 mmol/L solution per 200 μL well, average of three experiments; for inhibition at 10000 µM (stock): Homo sapiens, read-out: Growth inhibition rate (%) on tumor cells PG
Procedure: as §1, §2, §3

[8] = tested on: Human pancreatic cancer cell line PANC-1; assay: MTT growth inhibition on human pancreatic cancer cell line PANC-1; settings: different dosage ratios of dA, dG, C, total concentration same as Example 1
[9] = 48 hours, 60 μL of 10.0 mmol/L solution per 200 μL well, MTT, average of three experiments

Row | SMILES | Growth inhibition rate (%) on HT-29 [3] | Growth inhibition rate (%) on BGC823 ([4]; 48 hours) [%] | Growth inhibition rate (%) on BGC823 ([4]; 72 hours) [%] | Growth inhibition rate (%) on Bcap-37 ([6]; 48 hours) [%] | Growth inhibition rate (%) on Bcap-37 ([6]; 72 hours) [%] | inhibition at 10000 µM (stock) [5, 9] [%] | inhibition at 10000 µM (stock) [7] [%] | other results
1 | O=c1[nH]cc(F)c(=O)[nH]1 [5-FU, reference compound] | 96% and 95% and 91% and 93% | 91 | 95 | 92 | 95 |  |  | Growth inhibition rate (%) on SHG-44 ([1]; 48 hours): 91%; Growth inhibition rate (%) on SHG-44 ([1]; 72 hours): 96%; Growth inhibition rate (%) on Hela ([2]; 48 hours): 92%; Growth inhibition rate (%) on Hela ([2]; 72 hours): 96%; Growth inhibition rate (%) on tumor cells Bel-7402 [5, 9]: 91%; Growth inhibition rate (%) on Bel-7402 ([5]; 48 hours): 91%; Growth inhibition rate (%) on Bel-7402 ([5]; 72 hours): 95%; Growth inhibition rate (%) on tumor cells PG [7]: 90%; Growth inhibition rate (%) on human pancreatic cancer cell line PANC-1 ([8]; 48 hours): 93%; Growth inhibition rate (%) on human pancreatic cancer cell line PANC-1 ([8]; 72 hours): 95%
2 | Nc1ncnc2c1ncn2[C@@H]1O[C@H](CO)[C@@H](O)[C@H]1O [A, adenosine] |  |  |  |  |  | 86 | 84 | 
3 | Nc1ccn([C@@H]2O[C@H](CO)[C@@H](O)[C@H]2O)c(=O)n1 [C, cytidine] |  |  |  | 65 | 71 | 65 | 53 | 
4 | Nc1nc2c(ncn2[C@@H]2O[C@H](CO)[C@@H](O)[C@H]2O)c(=O)[nH]1 [G, guanosine] |  |  |  |  |  | 83 | 87 | 
5 | Cc1cn([C@H]2C[C@H](O)[C@@H](CO)O2)c(=O)[nH]c1=O [T, thymidine] | 85% |  |  |  |  | 87 | 88 | 
6 | O=c1ccn([C@@H]2O[C@H](CO)[C@@H](O)[C@H]2O)c(=O)[nH]1 [U, uridine] |  |  |  | 58 | 67 | 49 | 52 | 
7 | Nc1ncnc2c1ncn2[C@H]1C[C@H](O)[C@@H](CO)O1 [dA, deoxyadenosine] | 86% | 89 | 91 |  |  | 96 | 94 | 
8 | Nc1ccn([C@H]2C[C@H](O)[C@@H](CO)O2)c(=O)n1 [dC, deoxycytidine] | 89% |  |  |  |  | 86 | 84 | 
9 | Nc1nc2c(ncn2[C@H]2C[C@H](O)[C@@H](CO)O2)c(=O)[nH]1 [dG, deoxyguanosine] | 91% | 85 | 90 |  |  | 95 | 96 | Growth inhibition rate (%) on Bel-7402 ([5]; 48 hours): 87%; Growth inhibition rate (%) on Bel-7402 ([5]; 72 hours): 93%
